Source: US9708368B2, “Linear peptide antibiotics” (priority 2012, dated 2017)
≈ marks a conversion by molar mass, not a printed value. Where two headings read alike, the source gives them in different places. Square brackets hold non-standard residues; d marks the D form. Peptide text beside a SMILES is read from it. * marks the point of attachment. ξ: configuration not given here. Biphenylcarbonyl(4'-Bu) = CCCCc1ccc(-c2ccc(C(=O)*)cc2)cc1; X1 = C[C@H](N*)B1OC2C[C@@H]3C[C@@H](C3(C)C)[C@]2(C)O1; Benzoyl(4-hexyl) = CCCCCCc1ccc(C(=O)*)cc1; NMeThr(3ξ) = CN[C@H](C(=O)O)C(C)O; Myristoyl = CCCCCCCCCCCCCC(=O)*; NMeE = CN[C@@H](CCC(=O)O)C(=O)O; Thr(3ξ) = CC(O)[C@H](N)C(=O)O; NMeK = CN[C@@H](CCCCN)C(=O)O; Decanoyl = CCCCCCCCCC(=O)*; Dab = NCC[C@H](N)C(=O)O; boroGly = OB(O)CN*; ξP = O=C(O)C1CCCN1; βAla = NCCC(=O)O; ξA = CC(N)C(=O)O

Assays:
[1] = system: Methicillin Resistant Staphylococcus aureus strain USA 300 (NRS384)
Procedure: (§1) In vitro antimicrobial activity of each compound was determined by measuring minimal inhibitor concentrations (MICs) using the broth micro-dilution technique as approved by the Clinical and Laboratory Standards Institute (CLSI). […] Cells were inoculated onto Trypyticase Soy Agar or Luria Agar containing 16 ng/ml of anhydrotetracycline respectively and grown at 35° C. for 20 hours. Inocula suspensions were made by scraping cells into 1 mL of testing media (cation adjusted Mueller Hinton Broth supplemented with 0.002% v/v Tween-80) and diluting to a final OD600 nm of 0.01.
(§2) Test compounds were prepared in DMSO at a concentration of 10 mg/ml. […] Inocula suspensions were added to the two fold serial dilutions of test compounds to a final density of OD OD600 nm of 0.0005 and incubated stationary at 35° C. for 22 hours, after which the plates were examined visually.

[2] = system: Escherichia coli MC4100 IMP-4213 in which transcription of the SPase encoding gene is under control of a tetracycline inducible promoter; conditions: Method A; E. coli MC4100 IMP-4213 with decreased SPase expression; 35° C., 22 hours
Procedure: as §1, §2

S. aureus SPase = S. aureus SPase (Staphylococcus aureus, UniProt P0A070); test: biochemical
Sequence of S. aureus SPase (P0A070 whole entry): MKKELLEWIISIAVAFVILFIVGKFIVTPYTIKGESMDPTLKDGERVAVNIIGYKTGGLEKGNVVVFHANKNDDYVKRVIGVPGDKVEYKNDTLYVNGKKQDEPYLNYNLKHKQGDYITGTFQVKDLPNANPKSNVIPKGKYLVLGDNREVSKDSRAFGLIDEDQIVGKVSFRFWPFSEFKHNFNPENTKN
Procedure: Full length His-tagged S. aureus SPase protein was expressed similarly from E. coli BL21(DE3) containing the plasmid pCDF1-SaSpsB and purified similarly to the E. coli protein with the following exceptions. […] Protein purity was judged to exceed 95% by visual inspection of SDS-PAGE followed by Comassie staining. All protein concentrations were determined by BCA assay.
(§3) Reactions were initiated by the addition of substrate to a final concentration of 20 μM. Reaction progress was monitored by measuring the increase in fluorescence signal (excitation at 314 nm, emission at 416 nm) using a SpectraMax M2 fluorescence microplate reader. […] Three-folder serial dilutions of test compounds, starting at 10 μM, were prepared in enzyme mix solution and incubated at room temperature for 10 minutes. Following this incubation, fluorogenic substrate was added to a final concentration of 20 μM and the increase in fluorescence, corresponding to substrate cleavage, was monitored continuously at room temperature for 1 hour. Initial reaction rates were calculated based on the rate of increase in fluorescence during the reaction. Reaction rates were plotted as a function of compound concentration, and IC50 values are determined nonlinear regression analysis (SoftMaxPro 5.4, Molecular Devices™) of the sigmoidal dose-response curve.

E. coli SPase = E. coli SPase (Escherichia coli, UniProt P00803); test: Biochemical SPase activity assay (fluorogenic peptide substrate), E. coli enzyme
Sequence of E. coli SPase (P00803 whole entry): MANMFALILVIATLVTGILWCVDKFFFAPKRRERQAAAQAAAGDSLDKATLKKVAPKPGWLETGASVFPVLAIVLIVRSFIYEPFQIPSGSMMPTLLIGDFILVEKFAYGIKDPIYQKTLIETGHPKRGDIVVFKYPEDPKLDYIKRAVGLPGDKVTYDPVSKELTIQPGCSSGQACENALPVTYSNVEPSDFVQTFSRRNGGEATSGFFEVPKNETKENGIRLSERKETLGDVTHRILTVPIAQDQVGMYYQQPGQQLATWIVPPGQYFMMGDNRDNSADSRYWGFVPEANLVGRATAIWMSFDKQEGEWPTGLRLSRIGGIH
Procedure: as §3

[3] = system: methicillin resistant Staphylococcus aureus (MRSA) strain USA300 (NRS384); conditions: Method B, 35° C., 22 hours
Procedure: In vitro antimicrobial activity of each compound was determined by measuring minimal inhibitor concentrations (MICs) using the broth micro-dilution technique as approved by the Clinical and Laboratory Standards Institute (CLSI). […] Bacterial inocula were prepared by scraping cells into 1 mL of testing media (cation adjusted Mueller Hinton Broth supplemented with 0.002% v/v Tween-80) and diluting to a final OD600 nm of 0.01.
Test compounds were prepared in DMSO at a concentration of 10 mg/ml. […] Bacterial inocula were added to the two fold serial dilutions of test compounds to a final density of OD OD600 nm of 0.0005 and incubated stationarily at 35° C. for 22 hours, after which the plates were examined visually.

[4] = system: Escherichia coli strain MC4100 IMP-4213, which harbors an LptD mutation; conditions: Method B; E. coli MC4100 IMP-4213 (LptD mutation); 35° C., 22 hours
Outline: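 Two-fold serial dilutions of compound inoculated at final OD600 0.0005, incubated static at 35 °C for 22 h, and growth read visually.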

[5] = Method A, MRSA USA 300 (NRS384), 35° C., 22 hours

SMILES	MIC (μg/mL) S. aureus ([1]; USA 300, 22 h)	MIC (μg/mL) E. coli [2]	IC50 (S. aureus SPase)	MIC (μg/mL) S. aureus [1, 5]	IC50 (E. coli SPase)	MIC (μg/mL) S. aureus [3]	MIC (μg/mL) E. coli [4]
CCCCCCCCCCCCCC(=O)N[C@H](CO)C(=O)N[C@H](C)C(=O)NCC(=O)N(C)[C@H](C(=O)N[C@@H](C)C(=O)N[C@@H](CC(C)C)C(=O)NC(C)C(=O)C(=O)NC)C(C)O (mixture of isomers) [Compound 110]	>64 µg/mL	>64 µg/mL	0.15 µM				
CCCCCCCCCC(=O)N[C@@H](CC(C)C)C(=O)N[C@H](C(=O)N1CCC[C@@H]1C(=O)N[C@H](C(=O)N[C@@H](C)C(=O)N[C@@H](Cc1ccc(O)cc1)C(=O)NC(C)C(=O)C(=O)NC)C(C)O)C(C)O (mixture of isomers) [Compound 111]		>64 µg/mL	18 µM	>64 µg/mL	4.9 µM		
CCCCCCCCCCCCCC(=O)N[C@@H](CC(C)C)C(=O)N[C@H](C(=O)N1CCC[C@@H]1C(=O)N[C@H](C(=O)N[C@@H](C)C(=O)N[C@@H](Cc1ccc(O)cc1)C(=O)NC(C)C(=O)C(=O)NC)C(C)O)C(C)O (mixture of isomers) [Compound 112]		>64 µg/mL	3.4 µM	>64 µg/mL	31 µM		
CCCCCCc1ccc(C(=O)N[C@H](CO)C(=O)N[C@H](C)C(=O)NCC(=O)N(C)[C@H](C(=O)N[C@@H](C)C(=O)N[C@@H](CC(N)=O)C(=O)NCC=O)C(C)O)cc1 (stereo partly drawn) [Compound 101] ({Benzoyl(4-hexyl)}-[dS][dA]G[NMeThr(3ξ)]ANG-aldehyde)		>64 µg/mL	0.086 µM	>64 µg/mL	11 µM		
CCCCCCc1ccc(C(=O)N[C@H](CO)C(=O)N[C@H](C)C(=O)NCC(=O)N(C)[C@H](C(=O)N[C@@H](C)C(=O)N[C@@H](CC(C)C)C(=O)NCC=O)C(C)O)cc1 (stereo partly drawn) [Compound 102] ({Benzoyl(4-hexyl)}-[dS][dA]G[NMeThr(3ξ)]ALG-aldehyde)		>64 µg/mL	0.0097 µM	>64 µg/mL	18 µM		
CCCCCCCCCCCCCC(=O)N[C@@H](CC(C)C)C(=O)N[C@H](C(=O)N1CCC[C@@H]1C(=O)N[C@H](C(=O)N[C@@H](C)C(=O)N[C@@H](CC(N)=O)C(=O)NCC=O)C(C)O)C(C)O (stereo partly drawn) [Compound 103] (Myristoyl-L[Thr(3ξ)][dP][Thr(3ξ)]ANG-aldehyde)			0.11 µM	>64 µg/mL	11 µM		
CCCCCCCCCCCCCC(=O)N[C@H](CO)C(=O)N[C@H](C)C(=O)NCC(=O)N(C)[C@H](C(=O)N[C@@H](C)C(=O)N[C@@H](CC(C)C)C(=O)NCC=O)C(C)O (stereo partly drawn) [Compound 104] (Myristoyl-[dS][dA]G[NMeThr(3ξ)]ALG-aldehyde)			0.018 µM	8 µg/mL (≈ 10.2 µM)	8.9 µM		
CCCCCCCCCCCCCC(=O)N[C@@H](CC(C)C)C(=O)N[C@H](C(=O)N1CCC[C@@H]1C(=O)N[C@H](C(=O)N[C@@H](C)C(=O)N[C@@H](Cc1ccc(O)cc1)C(=O)NCC=O)C(C)O)C(C)O (stereo partly drawn) [Compound 105] (Myristoyl-L[Thr(3ξ)][dP][Thr(3ξ)]AYG-aldehyde)		>64 µg/mL		>64 µg/mL			
CCCCCCCCCCCCCC(=O)N[C@@H](CC(C)C)C(=O)N[C@H](C(=O)N1CCC[C@@H]1C(=O)N[C@H](C(=O)N[C@@H](C)C(=O)N[C@@H](CC(N)=O)C(=O)NC(C)C=O)C(C)O)C(C)O (stereo partly drawn) [Compound 108] (Myristoyl-L[Thr(3ξ)][dP][Thr(3ξ)]AN[ξA]-aldehyde)		>64 µg/mL	2.1 µM	64 µg/mL (≈ 72.6 µM)	20 µM		
CCCCCCCCCC(=O)N[C@@H](CC(C)C)C(=O)N[C@H](C(=O)N1CCC[C@@H]1C(=O)N[C@H](C(=O)N[C@@H](C)C(=O)N[C@@H](Cc1ccc(O)cc1)C(=O)NC(C)C=O)C(C)O)C(C)O (stereo partly drawn) [Compound 109] (Decanoyl-L[Thr(3ξ)][dP][Thr(3ξ)]AY[ξA]-aldehyde)		>64 µg/mL	4.9 µM	>64 µg/mL			
CCCCc1ccc(-c2ccc(C(=O)N[C@H](CO)C(=O)N[C@H](C)C(=O)NCC(=O)N[C@H](C(=O)N[C@@H](C)C(=O)N[C@@H](CC(N)=O)C(=O)NCB(O)O)C(C)O)cc2)cc1 (stereo partly drawn) [Compound 115] ({Biphenylcarbonyl(4'-Bu)}-[dS][dA]G[Thr(3ξ)]AN-boroGly)		>64 µg/mL	0.17 µM	>64 µg/mL	1 µM		
CCCCc1ccc(-c2ccc(C(=O)N[C@H](CO)C(=O)N[C@H](C)C(=O)N3CCC[C@H]3C(=O)N[C@H](C(=O)N[C@@H](C)C(=O)N[C@@H](CC(N)=O)C(=O)NCB(O)O)C(C)O)cc2)cc1 (stereo partly drawn) [Compound 116] ({Biphenylcarbonyl(4'-Bu)}-[dS][dA]P[Thr(3ξ)]AN-boroGly)		>64 µg/mL	0.038 µM	>64 µg/mL	0.31 µM		
CCCCc1ccc(-c2ccc(C(=O)N[C@H](CO)C(=O)N[C@H](C)C(=O)NCC(=O)N3CCCC3C(=O)N[C@@H](C)C(=O)N[C@@H](CC(N)=O)C(=O)NCB(O)O)cc2)cc1 (stereo partly drawn) [Compound 117] ({Biphenylcarbonyl(4'-Bu)}-[dS][dA]G[ξP]AN-boroGly)		>64 µg/mL	0.35 µM	>64 µg/mL	0.3 µM		
CCCCc1ccc(-c2ccc(C(=O)NCCC(=O)N[C@@H](CCCCN)C(=O)N[C@H](C(=O)N[C@@H](C)C(=O)N[C@@H](CC(N)=O)C(=O)NCB(O)O)C(C)O)cc2)cc1 (stereo partly drawn) [Compound 118] ({Biphenylcarbonyl(4'-Bu)-βAla}-K[Thr(3ξ)]AN-boroGly)		11 µg/mL (≈ 13.8 µM)	0.0094 µM	0.71 µg/mL (≈ 0.891 µM)	1.1 µM		
CCCCc1ccc(-c2ccc(C(=O)N[C@H](CO)C(=O)N[C@H](C)C(=O)NCC(=O)N(C)[C@@H](CCC(=O)O)C(=O)N[C@@H](C)C(=O)N[C@@H](CC(N)=O)C(=O)NCB(O)O)cc2)cc1 [Compound 119] ({Biphenylcarbonyl(4'-Bu)}-[dS][dA]G[NMeE]AN-boroGly)		>64 µg/mL	0.059 µM	>64 µg/mL	0.29 µM		
CCCCc1ccc(-c2ccc(C(=O)N[C@H](CO)C(=O)N[C@H](C)C(=O)NCC(=O)N(C)[C@@H](CCCCN)C(=O)N[C@@H](C)C(=O)N[C@@H](CC(N)=O)C(=O)NCB(O)O)cc2)cc1 [Compound 120] ({Biphenylcarbonyl(4'-Bu)}-[dS][dA]G[NMeK]AN-boroGly)		32 µg/mL (≈ 37.5 µM)	0.1 µM	>64 µg/mL	1.6 µM		
CCCCc1ccc(-c2ccc(C(=O)NCCC(=O)N[C@@H](CCCCN)C(=O)N[C@H](C(=O)N[C@@H](C)C(=O)N[C@@H](CC(N)=O)C(=O)N[C@@H](C)B3OC4C[C@@H]5C[C@@H](C5(C)C)[C@]4(C)O3)C(C)O)cc2)cc1 (stereo partly drawn) [Compound 121] ({Biphenylcarbonyl(4'-Bu)-βAla}-K[Thr(3ξ)]AN-X1)		0.5 µg/mL (≈ 0.529 µM)		0.25 µg/mL (≈ 0.265 µM)			
CCCCCCCCCCCCCC(=O)N[C@H](CO)C(=O)N[C@H](C)C(=O)NCC(=O)N(C)[C@H](C(=O)N[C@@H](C)C(=O)N[C@@H](CC(C)C)C(=O)NCB(O)O)C(C)O (stereo partly drawn) [Compound 122] (Myristoyl-[dS][dA]G[NMeThr(3ξ)]AL-boroGly)		>64 µg/mL	0.0076 µM	40 µg/mL (≈ 50 µM)	1.5 µM		
CCCCc1ccc(-c2ccc(CNCCC[C@H](NC(C)=O)C(=O)N[C@H](C(=O)N[C@@H](C)C(=O)N[C@@H](CCCCN)C(=O)N[C@@H](C)B3OC4C[C@@H]5C[C@@H](C5(C)C)[C@]4(C)O3)[C@@H](C)O)cc2)cc1 (stereo partly drawn) [Compound 275]			0.11 µM		1.5 µM	1 µg/mL (≈ 1.11 µM)	32 µg/mL (≈ 35.5 µM)
CCCCc1ccc(-c2ccc(CNCC[C@H](N)C(=O)N[C@H](C(=O)N[C@@H](C)C(=O)N[C@@H](CCCCN)C(=O)N[C@@H](C)B3OC4C[C@@H]5C[C@@H](C5(C)C)[C@]4(C)O3)[C@@H](C)O)cc2)cc1 (stereo partly drawn) [Compound 276]			0.11 µM		2 µM	0.5 µg/mL (≈ 0.591 µM)	16 µg/mL (≈ 18.9 µM)
CCCCc1ccc(-c2ccc(CNCC[C@H](NC(C)=O)C(=O)N[C@H](C(=O)N[C@@H](C)C(=O)N[C@@H](CCCCN)C(=O)N[C@@H](C)B3OC4C[C@@H]5C[C@@H](C5(C)C)[C@]4(C)O3)[C@@H](C)O)cc2)cc1 (stereo partly drawn) [Compound 277]			0.11 µM		0.68 µM	0.5 µg/mL (≈ 0.563 µM)	32 µg/mL (≈ 36 µM)
CCCCc1ccc(-c2ccc(C(=O)NCCCC[C@H](NC(=O)[C@@H](N)CCN)C(=O)N[C@@H](C)C(=O)N[C@@H](CCCCN)C(=O)N[C@@H](C)B3OC4C[C@@H]5C[C@@H](C5(C)C)[C@]4(C)O3)cc2)cc1 (stereo partly drawn) [Compound 278] (H-[Dab]K(Biphenylcarbonyl(4'-Bu))AK-X1)			2.3 µM		0.8 µM	4 µg/mL (≈ 4.51 µM)	16 µg/mL (≈ 18 µM)
CCCCc1ccc(-c2ccc(C(=O)NCCCC[C@H](NC(=O)[C@H](CCN)NC(C)=O)C(=O)N[C@@H](C)C(=O)N[C@@H](CCCCN)C(=O)N[C@@H](C)B3OC4C[C@@H]5C[C@@H](C5(C)C)[C@]4(C)O3)cc2)cc1 (stereo partly drawn) [Compound 279] (Ac-[Dab]K(Biphenylcarbonyl(4'-Bu))AK-X1)			7.4 µM		0.53 µM	11 µg/mL (≈ 11.8 µM)	8 µg/mL (≈ 8.61 µM)
